Reference: article PMC9502701 (Molecules, 2022)

Target: neuraminidase (NA) (Influenza A virus, UniProt Q6DPL2)
Assay type: biochemical
Conditions: for Inhibition Rate (%): 100 μg/mL standard compounds; for IC50: standard compounds

Chain of neuraminidase (NA) (Q6DPL2 whole entry, looked up): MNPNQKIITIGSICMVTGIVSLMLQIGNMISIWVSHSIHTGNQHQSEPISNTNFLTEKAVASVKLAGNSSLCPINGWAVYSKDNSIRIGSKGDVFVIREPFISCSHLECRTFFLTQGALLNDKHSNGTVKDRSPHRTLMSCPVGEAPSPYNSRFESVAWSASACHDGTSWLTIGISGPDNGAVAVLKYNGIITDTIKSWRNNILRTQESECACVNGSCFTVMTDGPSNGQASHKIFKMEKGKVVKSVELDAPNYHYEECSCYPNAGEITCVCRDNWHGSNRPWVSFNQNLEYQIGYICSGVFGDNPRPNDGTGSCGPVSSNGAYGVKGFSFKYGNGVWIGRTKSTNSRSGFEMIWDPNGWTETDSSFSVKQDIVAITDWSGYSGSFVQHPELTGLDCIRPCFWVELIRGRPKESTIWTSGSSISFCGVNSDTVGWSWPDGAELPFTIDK

Row | SMILES | Inhibition Rate (%) | IC50
1 | O=C(/C=C/c1ccc(O)c(O)c1)O[C@@H]1[C@H](O)C[C@@](O)(C(=O)O)C[C@H]1OC(=O)/C=C/c1ccc(O)c(O)c1 [4,5-Di-O-caffeoylquinic acid] | 75.90% | 132 µM
2 | O=C(/C=C/c1ccc(O)c(O)c1)O[C@H]1[C@H](O)C[C@](O)(C(=O)O)C[C@H]1O [Cryptochlorogenic acid, cryptochlorogenic acid] | 54.89% | 290 µM
3 | O=C(/C=C/c1ccc(O)c(O)c1)O[C@@H]1C[C@@](O)(C(=O)O)C[C@@H](O)[C@@H]1O [Neochlorogenic acid, neochlorogenic acid] | 76.00% | 157 µM
4 | C=C[C@H]1[C@H](O[C@@H]2O[C@H](CO)[C@@H](O)[C@H](O)[C@H]2O)OC=C(C(=O)OC)[C@H]1CC(=O)O [Secoxyloganin, secoxyloganin] | 37.74% | 
